Measured values published in patent publication US20110262556A1, “SILVER/WATER, SILVER GELS AND SILVER-BASED COMPOSITIONS; AND METHODS FOR MAKING AND USING THE SAME” (AMERICAN SILVER, LLC, priority 2005, published 2011).
In brackets after ≈: the same amount, converted by molar mass. Like-named read-outs stand apart in the source and are kept apart here.

Columns and labels:
S. pyogenes = test: MIC/MBC broth microdilution; assay type: cell-based, Streptococcus pyogenes; settings: for MBC: read-out: MBC
S. mutans = test: MIC/MBC broth microdilution; assay type: cell-based, Streptococcus mutans
S gordonii = test: MIC/MBC broth microdilution; assay type: cell-based, Streptococcus gordonii
S. pneumoniae = test: MIC/MBC broth microdilution; assay type: cell-based
S. faecalis = test: MIC/MBC broth microdilution; assay type: cell-based, Streptococcus faecalis
S. aureus = test: MIC/MBC broth microdilution; assay type: cell-based, Staphylococcus aureus
P. aeruginosa = test: MIC/MBC broth microdilution; assay type: cell-based, Pseudomonas aeruginosa
E. coli = test: MIC/MBC broth microdilution; assay type: cell-based, Escherichia coli; settings: for MBC: read-out: MBC
E. aerogenes = test: MIC/MBC broth microdilution; assay type: cell-based, Enterobacter aerogenes
E. cloacae = test: MIC/MBC broth microdilution; assay type: cell-based
S. typhimurium = test: MIC/MBC broth microdilution; assay type: cell-based
S arizona = test: MIC/MBC broth microdilution; assay type: cell-based, Salmonella arizona; settings: for MBC: read-out: MBC
S. boydii = test: MIC/MBC broth microdilution; assay type: cell-based, Shigella boydii
K. pneumoniae [1] = test: MIC/MBC broth microdilution; assay type: cell-based, Klebsiella pneumoniae
MRSA 1 = test: Zone of inhibition, agar well; settings: antibiotic amount (1-200 mcg)
MRSA 2 = test: Zone of inhibition, agar well; settings: antibiotic amount (1-200 mcg)
K. oxytoca = test: MIC/MBC broth microdilution; assay type: cell-based
B. subtilis = test: Zone of inhibition, agar well; settings: antibiotic amount (1-200 mcg)
S. aureus ATCC 6538 P = test: Zone of inhibition, agar well; settings: antibiotic amount (1-200 mcg)
E. coil = test: Zone of inhibition, agar well; settings: E.coli; antibiotic amount (5-200 mcg)
Ps. Aeruginosa = test: Zone of inhibition, agar well; settings: antibiotic amount (5-200 mcg)
S.typhi = test: Zone of inhibition, agar well; settings: antibiotic amount (5-200 mcg)
[2] = system: MRSA clinical isolate (pus); test: Antibiotic sensitivity, Kirby Bauer
[3] = system: Escherichia coli MDR clinical isolate (stool); test: Antibiotic sensitivity, Kirby Bauer
[4] = system: Pseudomonas aeruginosa MDR clinical isolate (sputum); test: Antibiotic sensitivity, Kirby Bauer
K. pneumoniae [5] = test: Zone of inhibition, agar well; settings: antibiotic amount (5-200 mcg)
[6] = Streptococcus pyogenes, read-out: MIC
[7] = Streptococcus mutans, read-out: MBC
[8] = Streptococcus mutans, read-out: MIC
[9] = Streptococcus gordonii, read-out: MBC
[10] = Streptococcus gordonii, read-out: MIC
[11] = Streptococcus pneumoniae, read-out: MBC
[12] = Streptococcus pneumoniae, read-out: MIC
[13] = Enterococcus faecalis, read-out: MBC
[14] = Enterococcus faecalis, read-out: MIC
[15] = Staphylococcus aureus, read-out: MBC
[16] = Staphylococcus aureus, read-out: MIC
[17] = Pseudomonas aeruginosa, read-out: MBC
[18] = Pseudomonas aeruginosa, read-out: MIC
[19] = Escherichia coli, read-out: MIC
[20] = Enterobacter cloacae, read-out: MIC
[21] = Klebsiella pneumoniae, read-out: MIC

CC1COc2c(N3CCN(C)CC3)c(F)cc3c(=O)c(C(=O)O)cn1c23 (centres unmarked) [Ofloxacin] gave an MBC (S. pyogenes; Streptococcus pyogenes) of 2.5 µg/mL (≈ 6.92 µM), an MIC (S. pyogenes; [6]) of 1.25 µg/mL (≈ 3.46 µM) and an MBC (S. mutans; [7]) of over 5 µg/mL. For the same molecule, the MIC (S. mutans; [8]) was 2.5 µg/mL (≈ 6.92 µM), the MBC (S gordonii; [9]) was 5 µg/mL (≈ 13.8 µM) and the MIC (S gordonii; [10]) was 2.5 µg/mL (≈ 6.92 µM). For the same molecule, the MBC (S. pneumoniae; [11]) was 2.5 µg/mL (≈ 6.92 µM), the MIC (S. pneumoniae; [12]) was 2.5 µg/mL (≈ 6.92 µM) and the MBC (S. faecalis; [13]) was 5 µg/mL (≈ 13.8 µM). The MIC (S. faecalis; [14]) was 1.25 µg/mL (≈ 3.46 µM), the MBC (S. aureus; [15]) was 0.625 µg/mL (≈ 1.73 µM) and the MIC (S. aureus; [16]) was 0.417 µg/mL (≈ 1.15 µM). It also gave an MBC (P. aeruginosa; [17]) of 0.313 µg/mL (≈ 0.866 µM), an MIC (P. aeruginosa; [18]) of 0.156 µg/mL (≈ 0.432 µM) and an MBC (E. coli; Escherichia coli) of 0.156 µg/mL (≈ 0.432 µM). The MIC (E. coli; [19]) was 0.104 µg/mL (≈ 0.288 µM), the MBC (E. aerogenes; Klebsiella aerogenes) was 0.156 µg/mL (≈ 0.432 µM) and the MIC (E. aerogenes; Klebsiella aerogenes) was 0.078 µg/mL (≈ 0.216 µM). The MBC (E. cloacae; Enterobacter cloacae) was 0.156 µg/mL (≈ 0.432 µM), the MIC (E. cloacae; [20]) was 0.156 µg/mL (≈ 0.432 µM) and the MBC (S. typhimurium; Salmonella enterica, S. typhimurium, read-out: MBC) was 0.156 µg/mL (≈ 0.432 µM). For the same molecule, the MIC (S. typhimurium; Salmonella enterica, S. typhimurium, read-out: MIC) was 0.078 µg/mL (≈ 0.216 µM), the MBC (S arizona; Salmonella) was 0.078 µg/mL (≈ 0.216 µM) and the MIC (S arizona; Salmonella, read-out: MIC) was 0.078 µg/mL (≈ 0.216 µM). For the same molecule, the MBC (S. boydii; Shigella boydii, S. boydii, read-out: MBC) was 0.156 µg/mL (≈ 0.432 µM), the MIC (S. boydii; Shigella boydii, S. boydii, read-out: MIC) was 0.078 µg/mL (≈ 0.216 µM) and the MBC (K. pneumoniae [1]; Klebsiella pneumoniae) was 0.625 µg/mL (≈ 1.73 µM). For the same molecule, the MIC (K. pneumoniae [1]; [21]) was 0.417 µg/mL (≈ 1.15 µM), the “zone of inhibition, antibiotics” value (MRSA 1) was 15 mm and the “zone of inhibition, antibiotics” value (MRSA 2) was 16 mm.

CC1(C)S[C@@H]2[C@H](NC(=O)Cc3ccccc3)C(=O)N2[C@H]1C(=O)O [Penicillin G] showed an MIC (S. pyogenes) of over 5.0 ppm, an MBC (S. mutans) of over 5 ppm and an MIC (S. mutans) of 0.521 ppm. For the same molecule, the MBC (S gordonii; S gordonii) was 0.039 ppm, the MIC (S gordonii; S gordonii) was 0.009 ppm and the MBC (S. pneumoniae) was 0.019/0.019 ppm. For the same molecule, the MIC (S. pneumoniae) was 0.019/0.019 ppm, the MBC (S. faecalis) was 5.0/>5.0 ppm and the MIC (S. faecalis) was 5.0/>5.0 ppm. It also gave an MBC (S. aureus) of over 5.0 ppm, an MIC (S. aureus) of 2.5 ppm and an MBC (P. aeruginosa) of over 5.0 ppm. It also gave an MIC (P. aeruginosa) of 0.13 ppm, an MIC (E. coli) of over 5.0 ppm and an MIC (E. aerogenes; E. aerogenes) of over 5.0 ppm. The MIC (E. cloacae) was over 5.0 ppm, the MIC (S. typhimurium; S. typhimurium) was over 5.0 ppm and the MIC (S arizona) was over 5.0 ppm. For the same molecule, the MIC (S. boydii; S. boydii) was over 5.0 ppm, the MIC (K. pneumoniae [1]) was over 5.0 ppm and the MIC (K. oxytoca; K. oxytoca) was over 5.0 ppm.

In the case of CC[C@H]1OC(=O)[C@H](C)[C@@H](O[C@H]2C[C@@](C)(OC)[C@@H](O)[C@H](C)O2)[C@H](C)[C@@H](O[C@@H]2O[C@H](C)C[C@H](N(C)C)[C@H]2O)[C@](C)(O)C[C@@H](C)/C(=N\OCOCCOC)[C@H](C)[C@@H](O)[C@]1(C)O [Roxythromycin], the “zone of inhibition, antibiotics” value (B. subtilis) is reported as 20 mm, the “zone of inhibition, antibiotics” value (MRSA 1) is reported as 1.0 mm and the “zone of inhibition, antibiotics” value (MRSA 2) is reported as 12 mm. For the same molecule, the “zone of inhibition, antibiotics” value (S. aureus ATCC 6538 P) was “Clear”.

CN(C)[C@@H]1C(O)=C(C(N)=O)C(=O)[C@@]2(O)C(O)=C3C(=O)c4c(O)cccc4[C@@](C)(O)[C@H]3C[C@@H]12 [Tetracycline] showed an MBC (S. pyogenes; Streptococcus pyogenes) of over 5 µg/mL, an MIC (S. pyogenes; [6]) of 0.625 µg/mL (≈ 1.41 µM) and an MBC (S. mutans; [7]) of over 5 µg/mL. It also gave an MIC (S. mutans; [8]) of 0.625 µg/mL (≈ 1.41 µM), an MBC (S gordonii; [9]) of 0.625 µg/mL (≈ 1.41 µM) and an MIC (S gordonii; [10]) of 0.156 µg/mL (≈ 0.351 µM). It also gave an MBC (S. pneumoniae; [11]) of 0.625 µg/mL (≈ 1.41 µM), an MIC (S. pneumoniae; [12]) of 0.078 µg/mL (≈ 0.176 µM) and an MBC (S. faecalis; [13]) of over 5 µg/mL. For the same molecule, the MIC (S. faecalis; [14]) was 0.313 µg/mL (≈ 0.704 µM), the MBC (S. aureus; [15]) was over 5 µg/mL and the MIC (S. aureus; [16]) was 0.313 µg/mL (≈ 0.704 µM). The MBC (P. aeruginosa; [17]) was 5 µg/mL (≈ 11.3 µM), the MIC (P. aeruginosa; [18]) was 0.078 µg/mL (≈ 0.176 µM) and the MBC (E. coli; Escherichia coli) was over 5 µg/mL. It also gave an MIC (E. coli; [19]) of 1.67 µg/mL (≈ 3.76 µM), an MIC (E. aerogenes; Klebsiella aerogenes, E. aerogenes, read-out: MIC) of over 5 µg/mL and an MBC (E. cloacae; Enterobacter cloacae) of over 5 µg/mL. The MIC (E. cloacae; [20]) was 1.67 µg/mL (≈ 3.76 µM), the MBC (S. typhimurium; Salmonella enterica, TYPHIMURIUM) was over 5 µg/mL and the MBC (S arizona; Salmonella) was over 5 µg/mL. It also gave an MIC (S arizona; Salmonella, read-out: MIC) of 0.625 µg/mL (≈ 1.41 µM), an MBC (S. boydii; Shigella boydii) of over 5 µg/mL and an MBC (K. pneumoniae [1]; Klebsiella pneumoniae) of over 5 µg/mL. The MIC (K. pneumoniae [1]; [21]) was 2.5 µg/mL (≈ 5.63 µM), the MBC (K. oxytoca; Klebsiella oxytoca) was over 5 µg/mL and the “zone of inhibition, antibiotics” value (E. coil) was 19 mm. For the same molecule, the “zone of inhibition, antibiotics” value (Ps. Aeruginosa) was “No inhibition”, the “zone of inhibition, antibiotics” value (MRSA 2) was 0.7 mm and the “zone of inhibition, antibiotics” value (S. aureus ATCC 6538 P) was 34 mm. For the same molecule, the “zone of inhibition, antibiotics” value (S.typhi) was 16 mm and the “Zone size (mm)” value ([2]; Kirby-Bauer antibiotic disc) was 27 mm.

For CC(C)(O/N=C(\C(=O)N[C@@H]1C(=O)N2C(C(=O)[O-])=C(C[n+]3ccccc3)CS[C@H]12)c1csc(N)n1)C(=O)O [ceftazidime], the “Zone size (mm)” value ([3]; E.c, Kirby-Bauer antibiotic disc) was 10 mm, the resistance of isolate ([3]; gram-negative isolate E. coli) was “resistance” and the “Zone size (mm)” value ([4]; Ps., Kirby-Bauer antibiotic disc) was 16 mm. For the same molecule, the resistance of isolate ([4]; gram-negative isolate Pseudomonas) was “resistance” and the resistance of isolate [2] was “resistant”.

With Co-Trimoxazole the “zone of inhibition, antibiotics” value (E. coil) was 24 mm, the “zone of inhibition, antibiotics” value (Ps. Aeruginosa) was “Clear” and the “zone of inhibition, antibiotics” value (B. subtilis) was 15 mm. The “zone of inhibition, antibiotics” value (S. aureus ATCC 6538 P) was “Clear”, the “zone of inhibition, antibiotics” value (S.typhi) was 27 mm and the “zone of inhibition, antibiotics” value (K. pneumoniae [5]) was 19 mm.
